Measured values as given in US20240342198A1, “TREATMENT OF IR[…] SUBJECTS WITH AUTISM SPECTRUM DISORDERS WITH MODERATE TO SEVERE ANXIETY AND/OR SOCIAL AVOIDANCE” (ZYNERBA PHARMACEUTICALS, INC., priority 2021, published 2024).

Assays:
[1] = tested on: patients with FXS and comorbid ASD; assay: Pooled placebo-controlled data: Week 12 change in ABC-C Irritability, 156 subjects; assay type: in vivo, human; conditions: subgroup comparison
From the text: The data collected from the studies presented herein, and other similar studies were pooled together and analyzed. […] The subjects had moderate to severe symptoms of ASD (ADOS-2, comparison score greater than, or equal to, 5). The data presented in Table 2 is the Week 12 change in ABC-C Irritability of all patients. In previous studies (such as presented in Example 1, Table 1) the data was enriched by removing the non-completers from the analysis and only presenting data from the completers.

[2] = tested on: children and adolescents with autism spectrum disorder; assay: BRIGHT study: open-label safety, tolerability and efficacy study of ZYN002 transdermal gel, 14 weeks; assay type: in vivo, human; conditions: subgroup comparison
Procedure: An exploratory open-label safety, tolerability and efficacy study of Zygel™ ZYNO02 transdermal gel to 37 children and adolescents with autism spectrum disorder was conducted. The patient population (ages 4 through 17 years old) were predominantly moderate-to-severe ASD patients. ASD was confirmed by Diagnostic and Statistical Manual of Mental Disorders, 5th edition (DSM-5) diagnostic criteria to assess the safety and efficacy of ZYNO02 in treating ASD-related behaviors as measured by a variety of efficacy assessments. These included the Aberrant Behavior Checklist-Community (ABC-C); the Autism Diagnostic Observation Schedule®, 2nd Edition (ADOS-2); and the Parent Rated Anxiety Scale-Autism Spectrum Disorder (PRAS-ASD). ZYNO02 was administered to patients with moderate-to-severe symptoms of ASD as add-on therapy to their standard of care.
The majority of the patients were male (92%) with a mean age of 9.2 years. […] The majority of patients had moderate or severe ASD at baseline as measured by the ADOS®-2 comparison score (94%) and Diagnostic and Statistical Manual of Mental Disorders, 5th edition, severity levels (92%). […]
The trial evaluated multiple efficacy assessments, including the ABC-C, PRAS-ASD, Autism Parenting Stress Index, Autism Impact Measure (AIM), and Clinical Global Impression-Severity (CGI-S) and Improvement (CGI-I). […]

## C=C(C)C1CCC(C)=CC1c1c(O)cc(CCCCC)cc1O (centres unmarked) [CBD, 2-[3-methyl-6-(1-methylethenyl)-2-cyclohexen-1-yl]-5-pentyl-1,3-benzenediol]
[1]
  improvement in irritability, ABC-CFXS Social Avoidance score > 7 compared to ≤ 7: twice as much improvement in irritability
[2]
  improvement in irritability, PRAS score > 37 compared to ≤ 37: twice as much improvement in irritability
